The values that follow are results of earlier work, collected in patent US20070191365A1, “3,4,6-Substituted pyridazines for treating neuropathic pain and associated syndromes” (priority 2006, published 2007).

For this series, the system named is animal model of Alzheimer's disease. The settings on record: Ranaivo et al., J Neurosci. (2006) 26:662-670.

As for `c1ccc(-c2cc(-c3ccccc3)c(N3CCN(c4ncccn4)CC3)nn2)cc1` [4,6-diphenyl-3-(4-(pyrimidin-2-yl)piperazin-1-yl)pyridazine], the “efficacy in an animal model of Alzheimer's disease” value is recorded as “exhibits efficacy”.
